Experimental data taken from patent publication US20070197957A1, “Implantable sensors, implantable pumps and anti-scarring drug combinations” (priority 2005, published 2007).
Entries after “also recorded” stand apart in the source; their conditions may differ.

What was measured:
[1] = 200 mg/day orally; cited from earlier work
[2] = water; cited from earlier work
AP-1 = experiment: IL-1 induced AP-1 binding activity in chondrocyte lysates; type: cell-based; conditions: lysates from chondrocytes pretreated with the agent (FIG. 1C)
[3] = system: collagenase and stromelysin; experiment: IL-1 induced collagenase and stromelysin RNA levels in chondrocytes; type: cell-based; conditions: pretreatment (FIG. 1D)
[4] = system: AP-1 transcriptional activity; experiment: IL-1 stimulated AP-1 transcriptional activity (AP-1 driven CAT reporter gene) in transfected chondrocytes; type: cell-based; conditions: IL-1 50 ng/ml, 24 hours, paclitaxel 10^−7 to 10^−5 M
Source text: The results shown are representative of three independent experiments.

[5] = system: AP-1 DNA binding activity; experiment: IL-1 induced AP-1 DNA binding activity, gel mobility shift assay with chondrocyte extracts; type: cell-based; conditions: chondrocyte lysates, pretreated with paclitaxel 10^−7 to 10^−5 M for 24 hours
Procedure: Binding activity was assayed with a radiolabeled human AP-1 sequence probe and gel mobility shift assay. Extracts from chondrocytes untreated or treated with various amounts of paclitaxel (10^−7 to 10^−5M) followed by IL-1β (20 ng/ml) were incubated with excess probe on ice for 30 minutes, followed by non-denaturing gel electrophoresis. The “com” lane contains excess unlabeled AP-1 oligonucleotide. The results shown are representative of three independent experiments.

[6] = system: Chick Chorioallantoic Membrane (CAM) vasculature; experiment: Chick chorioallantoic membrane (CAM) angiogenesis assay; type: in vivo; conditions: for Inhibition/n: 48 hours exposure
Procedure: Fertilized, domestic chick embryos were incubated for 3 days prior to shell-less culturing. In this procedure, the egg contents were emptied by removing the shell located around the air space. The interior shell membrane was then severed and the opposite end of the shell was perforated to allow the contents of the egg to gently slide out from the blunted end. The egg contents were emptied into round-bottom sterilized glass bowls and covered with petri dish covers. These were then placed into an incubator at 90% relative humidity and 3% CO2 and incubated for 3 days.
Ten microliter aliquots of this solution were dried on parafilm for 1 hour forming disks 2 mm in diameter. The dried disks containing paclitaxel were then carefully placed at the growing edge of each CAM at day 6 of incubation. Controls were obtained by placing paclitaxel-free methylcellulose disks on the CAMs over the same time course. After a 2 day exposure (day 8 of incubation) the vasculature was examined with the aid of a stereomicroscope. Liposyn II, a white opaque solution, was injected into the CAM to increase the visibility of the vascular details. The vasculature of unstained, living embryos were imaged using a Zeiss stereomicroscope which was interfaced with a video camera (Dage-MTI Inc., Michigan City, Ind.). […] Image negatives were then made on a graphics recorder (Model 3000; Matrix Instruments, Orangeburg, N.Y.).
The membranes of the 8 day-old shell-less embryo were flooded with 2% glutaraldehyde in 0.1M sodium cacodylate buffer; additional fixative was injected under the CAM. After 10 minutes in situ, the CAM was removed and placed into fresh fixative for 2 hours at room temperature. The tissue was then washed overnight in cacodylate buffer containing 6% sucrose. The areas of interest were postfixed in 1% osmium tetroxide for 1.5 hours at 4° C. The tissues were then dehydrated in a graded series of ethanols, solvent exchanged with propylene oxide, and embedded in Spurr resin. Thin sections were cut with a diamond knife, placed on copper grids, stained, and examined in a Joel 1200EX electron microscope. Similarly, […] sections were cut and stained with […] for light microscopy.
At day 11 of development, chick embryos were used for the corrosion casting technique. Mercox resin (Ted Pella, Inc., Redding, Calif.) was injected into the CAM vasculature using a 30-gauge hypodermic needle. […] After injection, the plastic was allowed to sit in situ for an hour at room temperature and then overnight in an oven at 65° C. The CAM was then placed in 50% aqueous solution of sodium hydroxide to digest all organic components.
This imaging setup was used at a magnification of 160× which permitted the direct visualization of blood cells within the capillaries; thereby blood flow in areas of interest may be easily assessed and recorded. For this study, the inhibition of angiogenesis was defined as an area of the CAM (measuring 2-6 mm in diameter) lacking a capillary network and vascular blood flow. Throughout the experiments, avascular zones were assessed on a 4 point avascular gradient (Table 11). This scale represents the degree of overall inhibition with maximal inhibition represented as a 3 on the avascular gradient scale.

[7] = system: Primary human smooth muscle cells; experiment: Smooth muscle cell migration assay (Boyden chamber, rhPDGF-BB chemotaxis); type: cell-based; conditions: chemotaxis to rhPDGF-BB 10 ng/ml, 4 hours
Procedure: Primary human smooth muscle cells were starved of serum in smooth muscle cell basal media containing insulin and human basic fibroblast growth factor (bFGF) for 16 hours prior to the assay. For the migration assay, cells were trypsinized to remove cells from flasks, washed with migration media and diluted to a concentration of 2-2.5×10^5 cells/ml in migration media. […] A 100 μL volume of smooth muscle cells (approximately 20,000-25,000 cells) was added to the top of a Boyden chamber assembly (Chemicon QCM CHEMOTAXIS 96-well migration plate). To the bottom wells, the chemotacetic agent, recombinant human platelet derived growth factor (rhPDGF-BB) was added at a concentration of 10 ng/ml in a total volume of 150 μL. Paclitaxel was prepared in DMSO at a concentration of 10^−2 M and serially diluted 10-fold to give a range of stock concentrations (10^−8 M to 10^−2 M). […]
At the end of the 4 hour period, cells in the top chamber were discarded and the smooth muscle cells attached to the underside of the filter were detached for 30 minutes at 37° C. in Cell Detachment Solution (Chemicon). […] Relative fluorescence units from triplicate wells were averaged after subtracting background fluorescence (control chamber without chemoattractant) and average number of cells migrating was obtained from a standard curve of smooth muscle cells serially diluted from 25,000 cells/well down to 98 cells/well.

collagenase (MMP-1) mRNA = experiment: IL-1 induced MMP-1 (collagenase) mRNA expression in chondrocytes, Northern blot
stromelysin (MMP-3) mRNA = experiment: IL-1 induced MMP-3 (stromelysin) mRNA expression in chondrocytes, Northern blot
[8] = in vivo; cited from earlier work
[9] = within 48 hours, depending on concentration
[10] = 10^−5 M paclitaxel, 24 hours pretreatment
[11] = chondrocytes pretreated with paclitaxel for 24 hours

CC(=O)N1CCN(c2ccc(OCC3COC(Cn4ccnc4)(c4ccc(Cl)cc4Cl)O3)cc2)CC1 (centres unmarked) [ketoconazole]
serum concentration [1]: about 3.2 micrograms
solubility in water [2]: essentially insoluble in water

CC(=O)O[C@H]1C(=O)[C@@]2(C)[C@H]([C@H](OC(=O)c3ccccc3)[C@]3(O)C[C@H](OC(=O)[C@H](O)[C@@H](NC(=O)c4ccccc4)c4ccccc4)C(C)=C1C3(C)C)[C@]1(OC(C)=O)CO[C@@H]1C[C@@H]2O [paclitaxel]
IL-1 induced binding activity (AP-1): decreased
IL-1 induction of collagenase and stromelysin RNA levels [3]: inhibited
IL-1 induced AP-1 reporter gene CAT activity [4]: decreased CAT activity in a concentration dependent manner; also recorded: reduced IL-1 induced AP-1 reporter gene CAT activity
IL-1 induced AP-1 binding activity to oligonucleotides [5]: decreased
Inhibition/n ([6]; 0.25 ug in methylcellulose (10 ul) disk): 2/11
Inhibition/n ([6]; 0.5 ug in methylcellulose (10 ul) disk): 6/11
Inhibition/n ([6]; 1 ug in methylcellulose (10 ul) disk): 6/15
Inhibition/n ([6]; 5 ug in methylcellulose (10 ul) disk): 20/27
Inhibition/n ([6]; 10 ug in methylcellulose (10 ul) disk): 16/21
Inhibition/n ([6]; 30 ug in methylcellulose (10 ul) disk): 31/31
angiogenesis in the CAM ([6]; 48 hours after application to the CAM): inhibited
avascular gradient scale, maximal avascular zone [6, 9]: 3
maximal avascular zone diameter [6, 9]: 6 mm
IC50 [7]: 0.76 nM
inhibition of collagenase mRNA expression (collagenase (MMP-1) mRNA; [10]): complete inhibition
collagenase mRNA levels, IL-1 induced (collagenase (MMP-1) mRNA; [11]): significantly reduced
concentration inhibiting collagenase expression in vitro (collagenase (MMP-1) mRNA; chondrocytes, IL-1 induced): 10^−6 M
inhibition of stromelysin mRNA expression (stromelysin (MMP-3) mRNA; [10]): complete inhibition
stromelysin mRNA levels, IL-1 induced (stromelysin (MMP-3) mRNA; [11]): significantly reduced
concentration inhibiting stromelysin expression in vitro (stromelysin (MMP-3) mRNA; chondrocytes, IL-1 induced): 10^−6 M

CN(C)/N=N/c1[nH]cnc1C(N)=O [Dacarbazine, dacarbazine]
absorption from the GI tract [8]: poorly absorbed
